Assay results as given in article PMC10097024, “Cytotoxic and Antibacterial Prenylated Acylphloroglucinols from Hypericum olympicum L” (Plants, 2023).
Converted amounts (≈) assume the structure as drawn. “And” between values parts separate entries of the source, which are not always exact repeats. Equal values may be shown once. Read-outs that look alike come from different tables or passages of the source.

Assays:
EA.hy926 = experiment: MTT cytotoxicity test; assay type: cell-based, human; details: Homo sapiens, EA.hy 926, EA.hy926, 72 h exposure
From the text: (§1) The group of human cell lines used in this study were represented by the tumor cell lines MDA-MB (breast carcinoma), EJ (urinary bladder carcinoma), K-562 (chronic myeloid leukemia), HL-60 (acute pre-myeloid leukemia), HL-60/DOX (multi-drug resistant HL-60 cell line, with over expression of MRP-1) and the non-tumorigenic cell lines HEK-293 (embryonic kidney cells) and EA.hy926 (vascular endothelial cells). EJ, HL60 and EA.hy926 were purchased from American Type Culture Collection (ATCC) (Manassas, Virginia). The other cell lines were purchased from the German Collection of Microorganisms and Cell Cultures (DSMZ GmbH, Braunschweig, Germany). HL-60/DOX cell lines were generated by periodically treating HL-60 cells with anthracyclins. The conditions in which the cell culture flasks were maintained were as follows: 37 °C in an incubator “BB 16-Function Line” Heraeus (Kendro, Hanau, Germany) with 5% CO2 humidified atmosphere. The growth medium was 90% RPMI-1640, supplemented with 10% FBS and 2 mM L-glutamine. MDA-MB-231, EJ, HEK-293 and EA.hy926 cells were maintained as adherent monolayer cultures while all the other (leukemic) cell lines were grown as suspension type cultures. Cells were maintained in log phase: the adherent cell lines were subjected to trypsinization 1–2 times a week and the leukemic cell lines were passaged 2–3 times a week by removing of part of the cellular suspension and substituting it with fresh medium.
(§2) The evaluation of cytotoxic activity was conducted by MTT test as described previously. The median inhibitory concentration (IC50) values which represent the half-maximal concentration values were calculated from sigmoidal concentration–response curves, using non-linear regression analysis (Curve fit, GraphPad Prizm 5.0 software, GraphPad Software Inc., San Diego, CA, USA). The selectivity index was calculated as the ratio of the IC50 of a non-cancerous line (HEK-293 or EA.hy926) and the average IC50 of all chemosensitive tested tumor cell lines (x). Therefore, SI=IC50HEK-293/IC50x . The resistance index (RI) was calculated as the ratio of IC50 of the multi-drug resistant HL-60/DOX cell line and the IC50 of its parent cell line: RI=IC50HL-60/DOX/IC50HL-60 .

EJ = experiment: MTT cytotoxicity test; assay type: cell-based, human; details: Homo sapiens, 72 h exposure
From the text: as §1, §2

HEK-293 = experiment: MTT cytotoxicity test; assay type: cell-based, human; details: Homo sapiens, HEK293, HEK-293, 72 h exposure
From the text: as §1, §2

HL-60/DOX = experiment: MTT cytotoxicity test; assay type: cell-based, human; details: Homo sapiens, 72 h exposure
From the text: as §1, §2

HL-60 [1] = experiment: MTT cytotoxicity test; assay type: cell-based, human; details: Homo sapiens, HL-60, 72 h exposure
From the text: as §1, §2

K-562 [2] = experiment: MTT cytotoxicity test; assay type: cell-based, human; details: Homo sapiens, K562, K-562, 72 h exposure
From the text: as §1, §2

MDA-MB-231 [3] = experiment: MTT cytotoxicity test; assay type: cell-based, human; details: Homo sapiens, MDA-MB-231, 72 h exposure
From the text: as §1, §2

[4] = system: human tumor (MDA-MB-231, EJ, K-562, HL-60 and HL-60/DOX) cell lines; experiment: MTT cytotoxicity test, tumor cell line panel; assay type: cell-based; details: Homo sapiens; average IC50 of all chemo-sensitive tested tumor cell lines; read-out: x
From the text: as §1, §2

HL-60 [5] = experiment: Antiproliferative test (NCI methodology); assay type: cell-based, human; details: for TGI: HL-60, total growth inhibition; for GI50: Homo sapiens, HL-60, MTT readout
From the text: as §1
(§3) The test was performed according the methodology of National Cancer Institute (NCI), USA [116]. Briefly, cells were seeded into 96-well plates in the same way as for an MTT test and after 24 h, the absorption of one plate of each cell line was measured as in the MTT assay described above, to represent a measurement of the cell population at the time of drug-addition (Tz). The rest of the plates were treated with the tested compounds and the experiment for them continued as the MTT-method. Using the absorbance measurements [(Tz, untreated control growth (C) and test growth in the present of the compounds (Ti)], the percentage growth is calculated at each of the tested concentrations of the compounds. Percentage growth inhibition (GI) is calculated as GI%=Ti−Tz/C−Tz×100 for concentrations for which Ti ≥ Tz. For concentrations in which Ti < Tz it is calculated as GI%=Ti−Tz/Tz×100 . Two dose parameters are calculated for each experimental agent. Growth inhibition of 50% (GI50) is calculated from Ti−Tz/C−Tz×100=50 . This is the drug concentration resulting in a 50% reduction in the net protein increase (as measured by MTT-test) in control cells during the drug incubation. The drug concentration resulting in total growth inhibition (TGI) is calculated from Ti = Tz.

K-562 [6] = experiment: Antiproliferative test (NCI methodology); assay type: cell-based, human; details: for GI50: Homo sapiens, K562, K-562, MTT readout; for TGI: K-562, total growth inhibition
From the text: as §1, §3

MDA-MB-231 [7] = experiment: Antiproliferative test (NCI methodology); assay type: cell-based, human; details: for GI50: Homo sapiens, MDA-MB-231, MTT readout; for TGI: MDA-MB-231, total growth inhibition
From the text: as §1, §3

procaspase 9 = experiment: Western blot, procaspase 9; assay type: cell-based, human; details: MDA-MB-231 and HL60/DOX
Protocol: (§4) Next, the samples were lysed on ice with a buffer containing 100 mM Tris–HCl at pH 8.0, 4% SDS, 20% glycerol, 1% Na3VO4, 200 mM dithiothreitol (DTT) (Sigma-Aldrich, St. Louis, MO, USA) and protease inhibitor (Roche, Basel, Switzerland). Then the cell lysate was boiled for 15 min and centrifuged at 13,000 rpm for 10 min at 4 °C. Before DTT addition, aliquot samples of 10 μL were taken from the lysates. Their protein concentrations were determined using a BCA protein assay kit (ThermoFisher Scientific, Waltham, MA, USA) after dilution 5× with H2O. Subsequently, the samples were subjected to denaturing SDS-PAGE electrophoresis and then transferred to PVDF membrane (Santa Cruz Biotechnology, USA). After this, the blots were fixed with blocking solution (5% w/v nonfat dried milk powder, dissolved in TBS) and incubated with specific primary antibodies: mouse procaspase-9 (sc-17784), mouse Bcl-2 (C-2, sc-7382) and mouse β-actin (sc-8432). The incubation was either overnight at 4 °C or for 150 min at room temperature. After washing, the membranes were incubated for 45 min with horseradish peroxidase conjugated secondary goat anti-mouse antibody (sc-2005) or mouse IgG kappa antibody (sc-516102) (Santa Cruz Biotechnology, Santa Cruz, CA, USA). […] This densitometry analysis of the blots was calculated by Quantity One software version 4.6.9 (Bio-Rad Laboratories, Hercules, CA, USA). […]

MRSA = details: growth of MRSA; cited from earlier work
Bcl-2 = experiment: Western blot, Bcl-2; assay type: cell-based, human; details: MDA-MB-231 and HL60/DOX
Protocol: as §4

[8] = system: NorA multidrug efflux pumps; design: method as in PMID 24119569; details: S. aureus; cited from earlier work
[9] = system: Enterococcus faecalis (ATCC 29212); experiment: MIC by broth microdilution; assay type: cell-based; details: ATCC29212, read-out: MIC
From the text: (§5) The Gram-positive bacterial strains that were examined for susceptibility were: Staphylococcus aureus (ATCC 29213, American Type Cell Culture Collection, Manassas, VA, USA), Staphylococcus aureus—MRSA (NBIMCC 8327-resistant to methicillin and oxacillin, National Bulgarian Collection for Industrial Microorganisms and Cell Cultures, Sofia, Bulgaria), Enterococcus faecalis (ATCC 29212) and Streptococcus pyogenes (SAIMC 10535, Collection of the Stephan Angeloff Institute of Microbiology, Sofia, Bulgaria). The only Gram-negative bacterial strain used was Escherichia coli (ATCC 35218). Bacteria were maintained in Trypticase Soy Broth (TSB, Himedia, India) at 37 °C, aerobic conditions. For the experiments brain heart infusion (BHI) broth (#M210 HiMedia, Mumbai, India) was used for E. faecalis and S. pyogenes and Mueller Hinton broth (MHB, #M0405B) from Thermo Scientific-Oxoid (Basingstoke, UK)—for all other strains.
(§6) BMD was performed according to the following protocol of ISO 20776/1-2006 [117]. A bacterial suspension with density of 10^8 CFU/mL (0.5 McFarland standard, OD600) was prepared from an overnight grown liquid bacterial culture homogenized over vortex and brought to a working bacterial suspension (WBS) with concentration of 5×10^5 CFU/mL by being diluted 200× with MHB or BHI broth and homogenized over vortex again. Two-fold serial dilutions of compounds 3–5 was prepared in 96-well round bottom plates to a volume of 50 μL and final range of concentrations 100–0.2 μg/mL. Stock solutions were dissolved in ethanol and MHB was used as diluent and as test for absence of contamination. Three wells were left as blank samples and 6 wells were left for control samples. An equivalent volume (50 μL) of the WBS was inoculated to each well in the aforementioned plates achieve final bacterial density of […] with the exception of the blank wells. After 18–24 h incubation under aerobic standardized conditions at 37 °C the plates were examined. […] Antibiotics dissolved in sterile distilled water were used as referent positive controls. They were penicillin G (PEN, #B0500000, Merck KGaA, Darmstadt, Germany) for E. faecalis and S. pyogenes, gentamicin (GEN, #15750-037, 50 mg/mL, Gibco, Paisley, UK) for all bacteria except S. pyogenes and ciprofloxacin (CIP, Ciproflav:10 mg/mL, Polfa S.A. Warsaw Pharmaceutical Works, Starogard Gdanski, Poland) for E. faecalis. The range of concentrations were 0.004–2 mg/L for PEN, 0.008–4 mg/L for GEN and 0.005–2 mg/L for CIP. The requirements of EUCAST (European Committee on Antimicrobial Susceptibility Testing) for their MICs were followed for discussing the results. In the end the plates which contained active agents were subjected to assessment of the dehydrogenase activity of the bacteria.

[10] = system: Staphylococcus aureus (ATCC 29213); experiment: MIC by broth microdilution; assay type: cell-based; details: ATCC29213, Staphylococcus aureus, read-out: MIC
From the text: as §5, §6

[11] = system: Staphylococcus aureus—MRSA (NBIMCC 8327); experiment: MIC by broth microdilution; assay type: cell-based; details: read-out: MIC
From the text: as §5, §6

[12] = system: Streptococcus pyogenes (SAIMC 10535); experiment: MIC by broth microdilution; assay type: cell-based; details: read-out: MIC
From the text: as §5, §6

HL-60 cells = details: cited from earlier work
MDA-MB-231 cells = details: cited from earlier work
K-562 cells = details: cited from earlier work

CC(C)=CCC/C(C)=C/COc1cc(O)cc(O)c1C(=O)C(C)C [Compound 1, (E)-1-[2-{(3,7-dimethylocta-2,6-dien-1-yl)oxy}-4,6-dihydroxyphenyl]-2-methylpropan-1-one]
IC50 (EA.hy926): 6.73 ± 0.9 µM
IC50 (EJ): 7.01 ± 1.3 µM
IC50 (HEK-293): 14.7 ± 2.2 µM
IC50 (HL-60/DOX): 5.59 ± 0.4 µM
IC50 (HL-60 [1]): 16.6 ± 3.3 µM
IC50 (K-562 [2]): 9.05 ± 0.8 µM
IC50 (MDA-MB-231 [3]): 24.9 ± 3.2 µM
IC50 [4]: 14.5 µM
TGI (HL-60 [5]): 9.39 µM
GI50 (HL-60 [5]): 3.79 µM
GI50 (K-562 [6]): 5.2 µM
TGI (K-562 [6]): 11.90 µM
GI50 (MDA-MB-231 [7]): 10.4 µM
TGI (MDA-MB-231 [7]): 18.56 µM
degradation of the precursor caspase 9 (in words) (procaspase 9): not any observed decrease
MIC50 (MRSA): 1.14 mg/L (≈ 3.43 µM)

CC[C@H](C)C(=O)c1c(O)cc(O)cc1OC/C=C(\C)CCC=C(C)C [Compound 2, olympicin A]
IC50 (EA.hy926): 34 ± 6.5 µM
IC50 (EJ): 5.61 ± 0.5 µM
IC50 (HEK-293): 22.5 ± 3.8 µM
IC50 (HL-60/DOX): 1.96 ± 0.2 µM
IC50 (HL-60 [1]): 13.8 ± 1.8 µM
IC50 (K-562 [2]): 22.9 ± 4 µM
IC50 (MDA-MB-231 [3]): 2.95 ± 0.4 µM
IC50 [4]: 11.3 µM
TGI (HL-60 [5]): 81.63 µM
GI50 (HL-60 [5]): 72.6 µM
GI50 (K-562 [6]): 20.3 µM
TGI (K-562 [6]): 23.49 µM
GI50 (MDA-MB-231 [7]): 1.07 µM
TGI (MDA-MB-231 [7]): 2.54 µM
degradation of the antiapoptotic protein Bcl-2 (in words) (Bcl-2): degradation
IC50 (MRSA): 1.80 mg/L (≈ 5.2 µM)
inhibition of efflux from NorA multidrug efflux pumps [8]: inhibited the efflux

COc1cc([C@@H]2c3cc4c(cc3[C@@H](O[C@@H]3O[C@@H]5CO[C@@H](C)O[C@H]5[C@H](O)[C@H]3O)[C@H]3COC(=O)[C@H]23)OCO4)cc(OC)c1O [Etoposide, reference compound]
IC50 (EJ): 5.4 ± 1.3 µM
IC50 (HL-60/DOX): 42.3 ± 2.7 µM
IC50 (HL-60 [1]): 1.27 ± 0.4 µM
IC50 (K-562 [2]): 2.34 ± 0.7 µM
IC50 (MDA-MB-231 [3]): 8.42 ± 1.3 µM

CNC(C)C1CCC(N)C(OC2C(N)CC(N)C(OC3OCC(C)(O)C(NC)C3O)C2O)O1 (centres unmarked) [Gentamicin, gentamicin, reference compound]
MIC [9]: 8 µg/mL and 16.8 µM
MIC [10]: 0.25 µg/mL and 0.52 µM
MIC [11]: 0.25 µg/mL and 0.52 µM

CC1(C)S[C@@H]2[C@H](NC(=O)Cc3ccccc3)C(=O)N2[C@H]1C(=O)O [Penicillin, penicillin G, reference compound]
MIC [9]: 2.5 µg/mL and 7.48 µM
MIC [12]: 0.08 µg/mL and 0.24 µM

Hyperisampsin M
IC50 (HL-60 cells): 1400 nM

hyperatomarin
IC50 (MDA-MB-231 cells): 860 nM

hyperbeanol B
IC50 (K-562 cells; K-562 cells): 17 µM

hyperbeanol D
IC50 (K-562 cells; K-562 cells): 21 µM

hyperforin
IC50 (K-562 cells; K-562): 3.2 µM

hyperisampsin J
IC50 (HL-60 cells): 560 nM

hyphenrone R
IC50 (HL-60 cells): 3300 nM
